According to patent US20260165350A1, “FLAVONOID COMPOSITIONS AND USES THEREOF” (FIRMENICH SA, priority 2022, published 2026):

Tests used:
Type in all cases: physicochemical
[1] = Solvent comparison: visual observation of naringenin dissolution, reassessed after three months; design: key: X: Dissolved; ◯: Partially dissolved, with sediments observed; #: Not dissolved; *: reprecipitated
Procedure: Several solvents and solvent blends were prepared after which a measured amount of naringenin was added and mechanically agitated. Each mixture was then visually observed for dissolution. All samples were stored at room temperature protected from direct light and were reassessed for stability after a period of three months.

[2] = Solubility at 25° C. from transparency during a heating ramp (Crystalline PV), exponential fit
Procedure: Naringenin was mixed with different solvents and mixtures of solvent and transferred to an 8-mL vial equipped with an overhead stirrer. The sample was placed in a Crystalline PV instrument (Technobis, The Netherlands). A heating step was carried with a heating ramp of +0.1° C./min under mechanical stirring, and the samples were monitored by following transparency via a LED light beam that passes through the vial. Full (100%) transparency is attained when Naringenin is completely dissolved in the solvent. On the other hand, when the measured values of transparency are below 100% the dissolution process is still incomplete. Once the signal has attained 100% transparency, the dissolution process was complete and the respective temperature was taken as the solubilization temperature.
For each solvent or mixture of solvent, the measured solubility as a function of temperature has been fitted to an exponential function. The solubility at 25° C. was obtained by extrapolation or interpolation of this exponential function.
The same method as described in Example 3 was used to determine the solubility of Phloretin at 25° C.

[3] = Stability of naringenin solutions stored three months at room temperature; design: key: X: dissolved; *: reprecipitated
Excerpt: (§1) Naringenin was mixed with different solvents and heated until the product has completely dissolved. Subsequently, the samples were left to cool down to room temperature and stored over a period of three months.

[4] = as above; design: key: X: Dissolved; ◯: Partially dissolved, with sediments observed; #: Not dissolved; *: reprecipitated; conditions: n-Propyl alcohol
Excerpt: as §1

[5] = (D)-Carvone, naringenin 15% (w/w)
[6] = (L)-Carvone + isopropyl alcohol (50:50), naringenin 10% (w/w)
[7] = (L)-Carvone, naringenin 10% (w/w)
[8] = Carvone + isopropyl alcohol + benzyl alcohol (20:40:40), naringenin 10% (w/w)
[9] = Ethanol + benzyl alcohol (50:50), naringenin 10% (w/w)
[10] = Ethyl lactate + Glycerol 20%, naringenin 10% (w/w)
[11] = Ethyl lactate, naringenin 10% (w/w)
[12] = Isopropyl alcohol + benzyl alcohol (50:50), naringenin 10% (w/w)
[13] = Isopropyl alcohol, naringenin 10% (w/w)
[14] = Lactic acid, naringenin 5% (w/w)
[15] = Mint Spicata (60% Carvone), naringenin 6% (w/w)
[16] = Mint Spicata China (80% Carvone) + isopropyl alcohol (60:40), naringenin 15% (w/w)
[17] = Mint Spicata China (80% Carvone), naringenin 10% (w/w)
[18] = Propanol NAT, naringenin 6% (w/w)
[19] = Propylene glycol, naringenin 10% (w/w)
[20] = (L)-Carvone 50% + Isopropyl alcohol 50%
[21] = n-Propyl alcohol, 4% of Naringenin
[22] = n-Propyl alcohol, 5% of Naringenin
[23] = n-Propyl alcohol, 6% of Naringenin

O=C1C[C@@H](c2ccc(O)cc2)Oc2cc(O)cc(O)c21 [Naringenin, naringenin]
Observation [1, 5]: X
Observation (after 3 months at RT) [1, 5]: X
Observation [1, 6]: X
Observation (after 3 months at RT) [1, 6]: X
Observation [1, 7]: X
Observation (after 3 months at RT) [1, 7]: X
Observation [1, 8]: X
Observation (after 3 months at RT) [1, 8]: X
Observation [1, 9]: X
Observation (after 3 months at RT) [1, 9]: *
Observation [1, 10]: ◯
Observation (after 3 months at RT) [1, 10]: ◯
Observation [1, 11]: #
Observation (after 3 months at RT) [1, 11]: #
Observation ([1]; Glycerol, naringenin 5% (w/w)): #
Observation (after 3 months at RT) ([1]; Glycerol, naringenin 5% (w/w)): #
Observation [1, 12]: X
Observation (after 3 months at RT) [1, 12]: *
Observation [1, 13]: #
Observation (after 3 months at RT) [1, 13]: #
Observation [1, 14]: #
Observation (after 3 months at RT) [1, 14]: #
Observation [1, 15]: X
Observation (after 3 months at RT) [1, 15]: X
Observation [1, 16]: X
Observation (after 3 months at RT) [1, 16]: X
Observation [1, 17]: X
Observation (after 3 months at RT) [1, 17]: X
Observation [1, 18]: ◯
Observation (after 3 months at RT) [1, 18]: ◯
Observation [1, 19]: #
Observation (after 3 months at RT) [1, 19]: #
Solubility of Naringenin at 25° C. (%) ([2]; (D)-Carvone 100%): 8.5%
Solubility of Naringenin at 25° C. (%) ([2]; (L)-Carvone 30% + n-Propyl alcohol 70%): 11.7%
Solubility of Naringenin at 25° C. (%) ([2]; (L)-Carvone 50% + Ethanol 50%): 18.7%
Solubility of Naringenin at 25° C. (%) [2, 20]: 16.6%
Solubility of Naringenin at 25° C. (%) ([2]; (L)-Carvone 50% + Propylene glycol 50%): 13.0%
Solubility of Naringenin at 25° C. (%) ([2]; (L)-Carvone 50% + n-Propyl alcohol 50%): 14.9%
Solubility of Naringenin at 25° C. (%) ([2]; (L)-Carvone 70% + n-Propyl alcohol 30%): 15.7%
Solubility of Naringenin at 25° C. (%) ([2]; (L)-Carvone 90% + n-Propyl alcohol 10%): 13.0%
Solubility of Naringenin at 25° C. (%) ([2]; (L)-Carvone 100%): 8.5%
Solubility of Naringenin at 25° C. (%) ([2]; Benzyl alcohol 100%): 3.9%
Solubility of Naringenin at 25° C. (%) ([2]; Ethyl lactate 100%): 5.3%
Solubility of Naringenin at 25° C. (%) ([2]; Eucalyptol 100%): 1.2%
Solubility of Naringenin at 25° C. (%) ([2]; Glycerol 100%): 0.1%
Solubility of Naringenin at 25° C. (%) ([2]; Isopropyl alcohol 50% + Benzyl alcohol 50%): 6.9%
Solubility of Naringenin at 25° C. (%) ([2]; Isopropyl alcohol 100%): 5.2%
Solubility of Naringenin at 25° C. (%) ([2]; Limonene 100%): <0.1%
Solubility of Naringenin at 25° C. (%) ([2]; Mint Spicata (80% carvone) 50% + Propylene glycol 50%): 12.0%
Solubility of Naringenin at 25° C. (%) ([2]; Mint Spicata (80% carvone) 60% + Isopropyl alcohol 40%): 15.4%
Solubility of Naringenin at 25° C. (%) ([2]; Mint Spicata (80% carvone) 100%): 7.5%
Solubility of Naringenin at 25° C. (%) ([2]; Neobee 100%): 0.1%
Solubility of Naringenin at 25° C. (%) ([2]; Propylene glycol 100%): 3.6%
Solubility of Naringenin at 25° C. (%) ([2]; Triethyl citrate 100%): 1.7%
Solubility of Naringenin at 25° C. (%) ([2]; n-Propyl alcohol 100%): 4.2%
Solution state (after three months at RT) ([3]; (L)-Carvone, 4% of Naringenin): X
Solution state (right after heating) ([3]; (L)-Carvone, 4% of Naringenin): X
Solution state (after three months at RT) ([3]; (L)-Carvone, 5% of Naringenin): X
Solution state (right after heating) ([3]; (L)-Carvone, 5% of Naringenin): X
Solution state (after three months at RT) ([3]; (L)-Carvone, 6% of Naringenin): X
Solution state (right after heating) ([3]; (L)-Carvone, 6% of Naringenin): X
Solution state (after three months at RT) ([3]; (L)-Carvone, 8% of Naringenin): X
Solution state (right after heating) ([3]; (L)-Carvone, 8% of Naringenin): X
Solution state (after three months at RT) ([3]; (L)-Carvone, 10% of Naringenin): X
Solution state (right after heating) ([3]; (L)-Carvone, 10% of Naringenin): X
Solution state (after three months at RT) ([3]; (L)-Carvone, 12% of Naringenin): X
Solution state (right after heating) ([3]; (L)-Carvone, 12% of Naringenin): X
Solution state (after three months at RT) [3, 21]: X
Solution state (right after heating) [3, 21]: X
Solution state (after three months at RT) [3, 22]: X
Solution state (right after heating) [3, 22]: X
Solution state (after three months at RT) [3, 23]: X
Solution state (right after heating) [3, 23]: X
Solution state (right after heating) ([3]; n-Propyl alcohol, 8% of Naringenin): X
Solution state (right after heating) ([3]; n-Propyl alcohol, 10% of Naringenin): X
Solution state (right after heating) ([3]; n-Propyl alcohol, 12% of Naringenin): X
Solution state (after three months at RT) ([4]; 8% of Naringenin): *
Solution state (after three months at RT) ([4]; 10% of Naringenin): *
Solution state (after three months at RT) ([4]; 12% of Naringenin): *

O=C(CCc1ccc(O)cc1)c1c(O)cc(O)cc1O [Phloretin, phloretin]
Solubility of Phloretin at 25° C. (%) ([2]; (L)-Carvone 50% + Ethanol 50%): 21.9%
Solubility of Phloretin at 25° C. (%) [2, 20]: 22.8%
Solubility of Phloretin at 25° C. (%) ([2]; (L)-Carvone 100%): 7.7%
Solubility of Phloretin at 25° C. (%) ([2]; Ethanol 100%): 15.9%
Solubility of Phloretin at 25° C. (%) ([2]; Isopropyl alcohol 100%): 12.7%
Solubility of Phloretin at 25° C. (%) ([2]; Propylene glycol 100%): 8.9%
